Where two headings read alike, the source gives them in different places.
Experiments:
Mino cells = assay: Antiproliferative effect, MTS cell viability assay, Mino cells; type: cell-based; settings: Homo sapiens, MINO, Mino mantle cell lymphoma cells; read-out: IC50 (anti-proliferation) Mino cells
In short: (§1)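 Steps: seed B-cell lymphoma line; add compound at 0, 0.001, 0.01, 0.1, 1 or 10 μM; incubate 72 h; add MTS and read reduced tetrazolium (formazan) absorbance at 490 nm.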

JeKo-1 cells = assay: Antiproliferative effect, MTS cell viability assay, JeKo-1 cells; type: cell-based; settings: Homo sapiens; JeKo-1 mantle cell lymphoma cells; read-out: IC50 (anti-proliferation) JeKO-1 cells
In short: as §1

BTK = BTK (Homo sapiens, UniProt Q06187); assay: Degradation of BTK protein in Namalwa cells (Western blot; DC50, Dmax); settings: for DC50: cell line not given; for degradation of BTK protein: Namalwa B lymphocyte cells, various concentrations, 24 hours, Western blot
Sequence of BTK (Q06187 whole entry): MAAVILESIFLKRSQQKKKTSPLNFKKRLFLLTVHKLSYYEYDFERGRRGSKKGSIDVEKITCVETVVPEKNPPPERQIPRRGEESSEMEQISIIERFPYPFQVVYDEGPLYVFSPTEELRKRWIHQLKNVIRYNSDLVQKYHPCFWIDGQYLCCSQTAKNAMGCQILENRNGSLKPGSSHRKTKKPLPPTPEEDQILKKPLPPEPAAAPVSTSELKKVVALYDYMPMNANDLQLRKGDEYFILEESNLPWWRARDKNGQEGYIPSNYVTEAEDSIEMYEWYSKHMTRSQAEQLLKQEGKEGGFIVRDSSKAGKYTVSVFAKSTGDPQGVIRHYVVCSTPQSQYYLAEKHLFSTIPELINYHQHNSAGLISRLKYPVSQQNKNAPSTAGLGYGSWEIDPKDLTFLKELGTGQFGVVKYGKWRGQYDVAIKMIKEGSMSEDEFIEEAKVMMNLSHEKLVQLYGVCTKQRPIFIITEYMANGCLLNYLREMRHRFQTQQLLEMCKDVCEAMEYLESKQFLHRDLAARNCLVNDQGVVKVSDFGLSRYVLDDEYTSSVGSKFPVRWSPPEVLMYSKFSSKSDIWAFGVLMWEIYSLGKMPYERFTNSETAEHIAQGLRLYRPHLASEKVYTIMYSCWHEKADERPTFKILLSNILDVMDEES

[1] = read-out: DC50 (BTK degradation), concentration giving 50% reduction of BTK expression level
[2] = read-out: Dmax (BTK degradation)

Dmax (BTK) | DC50 (BTK; BTK degradation) | DC50 (BTK; [1]) | Dmax (BTK; [2]) | degradation of BTK protein (BTK) | Compound | IC50 (Mino cells) | IC50 (JeKo-1 cells)
> 90% | 10 to 50 nM | – | – | – | NC(=O)c1c(-c2ccc(Oc3ccccc3)cc2)nn2c1NCC[C@H]2C1CCN(C2CCN(CC3CCN(c4ccc5c(c4)CN(C4CCC(=O)NC4=O)C5=O)CC3)CC2)CC1 (stereo partly drawn) [Compound 322, (7S)-7-(1′-((1-(2-(2,6-dioxopiperidin-3-yl)-1-oxoisoindolin-5-yl)piperidin-4-yl)methyl)-[1,4′-bipiperidin]-4-yl)-2-(4-phenoxyphenyl)-4,5,6,7-tetrahydropyrazolo[1,5-a]pyrimidine-3-carboxamide] | 1000 to 10000 nM | 1000 to 10000 nM
– | – | < 10 nM | > 90% | – | Nc1ncnc2c1c(-c1ccc(Oc3ccccc3)cc1)nn2C1CCC(C(=O)NCCN2CCN(c3ccc4c(c3)CN(C3CCC(=O)NC3=O)C4=O)CC2)CC1 (stereo not shown) [Compound 523, 4-(4-amino-3-(4-phenoxyphenyl)-1H-pyrazolo[3,4-d]pyrimidin-1-yl)-N-(2-(4-(2-(2,6-dioxopiperidin-3-yl)-1-oxoisoindolin-5-yl)piperazin-1-yl)ethyl)cyclohexane-1-carboxamide] | < 1000 nM | < 1000 nM
> 90% | 10 to 50 nM | – | – | – | NC(=O)c1c(-c2ccc(Oc3ccccc3)cc2)nn2c1NCC[C@H]2C1CCN(C2CCN(C(=O)N3CCC(CN4CCN(c5ccc6c(c5)CN(C5CCC(=O)NC5=O)C6=O)CC4)CC3)CC2)CC1 (stereo partly drawn) [Compound 390, (7S)-7-(1′-(4-((4-(2-(2,6-dioxopiperidin-3-yl)-1-oxoisoindolin-5-yl)piperazin-1-yl)methyl)piperidine-1-carbonyl)-[1,4′-bipiperidin]-4-yl)-2-(4-phenoxyphenyl)-4,5,6,7-tetrahydropyrazolo[1,5-a]pyrimidine-3-carboxamide] | 1000 to 10000 nM | > 10000 nM
> 90% | 10 to 50 nM | – | – | – | Nc1ncnc2c1c(-c1ccc(Oc3ccccc3)cc1)nn2C1CCN(C2CCN(C(=O)N3CCC(CCN4CCC(c5ccc6c(c5)C(=O)N(C5CCC(=O)NC5=O)C6=O)CC4)CC3)CC2)CC1 (stereo not shown) [Compound 253, 5-(1-(2-(1-(4-(4-amino-3-(4-phenoxyphenyl)-1H-pyrazolo[3,4-d]pyrimidin-1-yl)-[1,4′-bipiperidine]-1′-carbonyl)piperidin-4-yl)ethyl)piperidin-4-yl)-2-(2,6-dioxopiperidin-3-yl)isoindoline-1,3-dione] | 1000 to 10000 nM | 1000 to 10000 nM
– | – | 10 to 50 nM | > 90% | – | NC1=NC=NC2C1C(c1ccc(Oc3ccccc3)cc1)=NN2[C@@H]1CCCN(C(=O)N2CCN(C3CN(c4ccc5c(c4)CN(C4CCC(=O)NC4=O)C5=O)C3)CC2)C1 (stereo partly drawn) [Compound 506, 3-(5-(3-(4-((3R)-3-(4-amino-3-(4-phenoxyphenyl)-3a,7a-dihydro-1H-pyrazolo[3,4-d]pyrimidin-1-yl)piperidine-1-carbonyl)piperazin-1-yl)azetidin-1-yl)-1-oxoisoindolin-2-yl)piperidine-2,6-dione] | < 1000 nM | < 1000 nM
– | – | 10 to 50 nM | > 90% | – | NC1=NC=NC2C1C(c1ccc(Oc3ccccc3)cc1)=NN2C1CCCN(C2CN(C(=O)N3CC(C4CN(c5ccc6c(c5)C(=O)N(C5CCC(=O)NC5=O)C6=O)C4)C3)C2)C1 (stereo not shown) [Compound 501] | 1000 to 10000 nM | < 1000 nM
– | – | 10 to 50 nM | > 90% | – | Nc1ncnc2c1c(-c1ccc(Oc3ccccc3)cc1)nn2C1CCN(CCCN2CCC(CC3CCN(c4ccc(NC5CCC(=O)NC5=O)cc4)CC3)CC2)CC1 (stereo not shown) [Compound 561, 3-((4-(4-((1-(3-(4-(4-amino-3-(4-phenoxyphenyl)-1H-pyrazolo[3,4-d]pyrimidin-1-yl)piperidin-1-yl)propyl)piperidin-4-yl)methyl)piperidin-1-yl)phenyl)amino)piperidine-2,6-dione] | < 1000 nM | < 1000 nM
– | – | 10 to 50 nM | > 90% | – | Nc1ncnc2c1c(-c1ccc(Oc3ccccc3)cc1)nn2C1CCN(C2CCN(CCCN3CCN(c4ccc(N5CCC(=O)NC5=O)cc4)CC3)CC2)CC1 [Compound 572, 1-(4-(4-(3-(4-(4-amino-3-(4-phenoxyphenyl)-1H-pyrazolo[3,4-d]pyrimidin-1-yl)-[1,4′-bipiperidin]-1′-yl)propyl)piperazin-1-yl)phenyl)dihydropyrimidine-2,4(1H,3H)-dione] | < 1000 nM | < 1000 nM
– | – | 10 to 50 nM | > 90% | – | Nc1ncnc2c1c(-c1ccc(Oc3ccccc3)cc1)nn2C1CCN(C[C@@H]2CCN(CC3CCN(c4ccc5c(c4)CN(C4CCC(=O)NC4=O)C5=O)CC3)C2)CC1 (stereo partly drawn) [Compound 446b, 3-(5-(4-(((S)-3-((4-(4-amino-3-(4-phenoxyphenyl)-1H-pyrazolo[3,4-d]pyrimidin-1-yl)piperidin-1-yl)methyl)pyrrolidin-1-yl)methyl)piperidin-1-yl)-1-oxoisoindolin-2-yl)piperidine-2,6-dione] | < 1000 nM | 1000 to 10000 nM
– | – | < 10 nM | > 90% | dose-dependent degradation | Nc1ncnc2c1c(-c1ccc(Oc3ccccc3)cc1)nn2[C@@H]1CCCN(C2CN(C(=O)N3CC(N4CCN(c5ccc6c(c5)CN(C5CCC(=O)NC5=O)C6=O)CC4)C3)C2)C1 (stereo partly drawn) [Compound 480, 3-(5-(4-(1-(3-((R)-3-(4-amino-3-(4-phenoxyphenyl)-1H-pyrazolo[3,4-d]pyrimidin-1-yl)piperidin-1-yl)azetidine-1-carbonyl)azetidin-3-yl)piperazin-1-yl)-1-oxoisoindolin-2-yl)piperidine-2,6-dione] | < 1000 nM | 1000 to 10000 nM
> 90% | 10 to 50 nM | – | – | – | NC(=O)c1c(-c2ccc(Oc3ccccc3)cc2)nn2c1NCCC2C1CCN(CC2CCN(C(=O)N3CCN(CC4CCN(c5ccc6c(c5)CN(C5CCC(=O)NC5=O)C6=O)CC4)CC3)CC2)CC1 (stereo not shown) [Compound 372, 7-(1-((1-(4-((1-(2-(2,6-dioxopiperidin-3-yl)-1-oxoisoindolin-5-yl)piperidin-4-yl)methyl)piperazine-1-carbonyl)piperidin-4-yl)methyl)piperidin-4-yl)-2-(4-phenoxyphenyl)-4,5,6,7-tetrahydropyrazolo[1,5-a]pyrimidine-3-carboxamide] | 1000 to 10000 nM | < 1000 nM
– | – | < 10 nM | > 90% | – | Nc1ncnc2c1c(-c1ccc(Oc3ccccc3)cc1)nn2C1CCC(C(=O)N2CC(C3CCN(c4ccc5c(c4)CN(C4CCC(=O)NC4=O)C5=O)CC3)C2)CC1 (stereo not shown) [Compound 514, 3-(5-(4-(1-(4-(4-amino-3-(4-phenoxyphenyl)-1H-pyrazolo[3,4-d]pyrimidin-1-yl)cyclohexane-1-carbonyl)azetidin-3-yl)piperidin-1-yl)-1-oxoisoindolin-2-yl)piperidine-2,6-dione] | < 1000 nM | < 1000 nM
– | – | < 10 nM | > 90% | dose-dependent degradation | Nc1ncnc2c1c(-c1ccc(Oc3ccccc3)cc1)nn2C1CCN(C2CCN(CC3CCN(c4ccc5c(c4)C(=O)N(C4CCC(=O)NC4=O)C5=O)C3)C2)CC1 (stereo not shown) [Compound 451, 5-(3-((3-(4-(4-amino-3-(4-phenoxyphenyl)-1H-pyrazolo[3,4-d]pyrimidin-1-yl)piperidin-1-yl)pyrrolidin-1-yl)methyl)pyrrolidin-1-yl)-2-(2,6-dioxopiperidin-3-yl)isoindoline-1,3-dione] | < 1000 nM | 1000 to 10000 nM
> 90% | < 10 nM | – | – | – | NC(=O)c1c(-c2ccc(Oc3ccccc3)cc2)nn2c1NCC[C@H]2C1CCN(C2CCN(C(=O)N3CCN(C4CCN(c5ccc6c(c5)CN(C5CCC(=O)NC5=O)C6=O)CC4)CC3)CC2)CC1 (stereo partly drawn) [Compound 386, (7S)-7-(1′-(4-(1-(2-(2,6-dioxopiperidin-3-yl)-1-oxoisoindolin-5-yl)piperidin-4-yl)piperazine-1-carbonyl)-[1,4′-bipiperidin]-4-yl)-2-(4-phenoxyphenyl)-4,5,6,7-tetrahydropyrazolo[1,5-a]pyrimidine-3-carboxamide] | < 1000 nM | < 1000 nM
> 90% | 10 to 50 nM | – | – | – | Nc1ncnc2c1c(-c1ccc(Oc3ccccc3)cc1)nn2C1CCN(C2CCN(C(=O)N3CCN(CC4CCN(c5ccc6c(c5)C(=O)N(C5CCC(=O)NC5=O)C6=O)CC4)CC3)CC2)CC1 (stereo not shown) [Compound 241, 5-(4-((4-(4-(4-amino-3-(4-phenoxyphenyl)-1H-pyrazolo[3,4-d]pyrimidin-1-yl)-[1,4′-bipiperidine]-1′-carbonyl)piperazin-1-yl)methyl)piperidin-1-yl)-2-(2,6-dioxopiperidin-3-yl)isoindoline-1,3-dione] | 1000 to 10000 nM | 1000 to 10000 nM
> 75% | 10 to 50 nM | – | – | – | NC(=O)c1c(-c2ccc(Oc3ccccc3)cc2)nn2c1NCCC2C1CCN(C2CCN(CCN3CCN(c4ccc5c(c4)CN(C4CCC(=O)NC4=O)C5=O)CC3)CC2)CC1 (stereo not shown) [Compound 308, 7-(1′-(2-(4-(2-(2,6-dioxopiperidin-3-yl)-1-oxoisoindolin-5-yl)piperazin-1-yl)ethyl)-[1,4′-bipiperidin]-4-yl)-2-(4-phenoxyphenyl)-4,5,6,7-tetrahydropyrazolo[1,5-a]pyrimidine-3-carboxamide] | 1000 to 10000 nM | > 10000 nM
– | – | < 10 nM | > 90% | – | Nc1ncnc2c1c(-c1ccc(Oc3ccccc3)cc1)nn2C1CCN(C2CCN(CCCN3CCC(c4ccc(NC5CCC(=O)NC5=O)cc4)CC3)CC2)CC1 (stereo not shown) [Compound 580, 3-((4-(1-(3-(4-(4-amino-3-(4-phenoxyphenyl)-1H-pyrazolo[3,4-d]pyrimidin-1-yl)-[1,4′-bipiperidin]-1′-yl)propyl)piperidin-4-yl)phenyl)amino)piperidine-2,6-dione] | < 1000 nM | < 1000 nM

Reference: patent US12139492B2 (Endotarget Inc., priority 2021, dated 2024)
